Like-named read-outs stand apart in the source and are kept apart here.

The target in data set [1] is T1, GST-GK derived from human liver GK (Homo sapiens, UniProt P35557).
T1 construct: made in house; host or cells: Escherichia coli DH5α
T1 sequence (P35557 1-466 isoform P35557-2): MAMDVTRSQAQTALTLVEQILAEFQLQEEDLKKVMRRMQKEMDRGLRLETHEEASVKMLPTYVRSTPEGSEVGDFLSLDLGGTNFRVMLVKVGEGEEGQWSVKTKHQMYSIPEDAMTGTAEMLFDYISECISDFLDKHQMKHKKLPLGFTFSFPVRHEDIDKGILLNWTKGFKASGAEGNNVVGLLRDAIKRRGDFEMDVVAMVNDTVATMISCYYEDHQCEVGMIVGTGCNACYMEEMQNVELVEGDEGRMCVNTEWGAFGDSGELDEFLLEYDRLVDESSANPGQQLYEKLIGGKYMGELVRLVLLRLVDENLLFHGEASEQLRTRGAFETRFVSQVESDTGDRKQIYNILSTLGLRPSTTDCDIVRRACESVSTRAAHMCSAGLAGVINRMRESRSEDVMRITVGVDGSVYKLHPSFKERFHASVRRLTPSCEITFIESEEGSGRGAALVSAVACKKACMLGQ
In words: In vitro GK activating action measurement test. It counts as biochemical. To be noted: 10 min; test compound 1 μmol/L, glucose 2.5 mmol/L, 25° C.; read-out: GK activation rate (%). The text has this: cDNA (GenBank Accession No. NM_033507, human glucokinase, variant 2) encoding human liver-type GK polypeptide was cloned by performing a polymerase chain reaction (hereinafter referred to as “PCR”) using a human liver cDNA library (Human liver QUICK-Clone cDNA, TAKARA BIO INC.), and the thus cloned cDNA was then introduced into an expression vector (pGEX-3X, GE Healthcare Japan) for glutathione S transferase (hereinafter referred to as GST) fusion proteins. The resulting vector was introduced into Escherichia coli (Competent high DH5α, Toyobo Co., Ltd.), and the transformed Escherichia coli was then cultured at 37° C. Thereafter, Isopropyl β-D-1-thiogalactopyranoside (final concentration: 1 mmol/L, Sigma Aldrich Japan) was added to the culture, and the obtained mixture was then cultured at 30° C. for 3 hours. Thereafter, a cell mass was recovered. The recovered cell mass was subjected to freezing-and-thawing, and the resulting cell mass was then suspended in Triton-X that had been added in a final concentration of 1% to a phosphate buffer, followed by disintegration with an ultrasonic disintegrator. The homogenate was centrifuged at 33,200 rpm at 4° C. for 1 hour. Thereafter, the supernatant was recovered, and a GST-GK fusion protein was then purified using a glutathione column (GSTrap FF, GE Healthcare Japan). The obtained GST-GK fusion protein was divided into some portions each having a small volume, and the thus divided proteins were then preserved at −80° C.
A GK assay was carried out at 25° C. at a final incubation volume of 100 μL using a flat-bottom 96-well assay plate. An assay buffer comprised 25 mmol/L Hepes buffer (pH 7.1), 25 mmol/L KCl, 2.5 mmol/L or 10 mmol/L D-glucose, 5 mmol/L ATP, 1 mmol/L nicotinamide adenine dinucleotide phosphate (abbreviated as NADP), 2 mmol/L MgCl2, 1 mmol/L dithiothreitol (DTT), 2 units/mL glucose-6 phosphate dehydrogenase (G6PDH), and 1 μg/mL GST-GK derived from human liver GK. ATP, G6PDH, and NADP were purchased from Roche Diagnostics. […] The thus mixed solution was preincubated in an incubator in which the temperature was controlled at 25° C. for 15 minutes. Subsequently, the reaction was initiated by adding 10 μL of the GST-GK solution to the reaction mixture, resulting in a final concentration of 0.1 μg/mL. After initiation of the reaction, an increase in the optical concentration at 340 nm (OD340) was monitored with a microplate spectrophotometer (Varsamax, Molecular Devices Japan K. K.) every 10 seconds over an incubation period of 10 minutes. An inclination of the OD340 increase was defined as raw data. The GK activating rate was indicated as a numerical value obtained from the expression: (Inclination of OD340 increase by addition of the test compound)/(inclination of OD340 increase without addition of the test compound). The results of the GK activating rate obtained at a test compound concentration of 1 μmol/L under the condition of a glucose concentration of 2.5 mmol/L are shown in the following table 2.

Data set [2] is described as follows: Evaluation of organ selectivity (non-binding drug concentration in liver and pancreas after oral administration). The data set is classed as in vivo, normal mice (C57BL/6j mice). Conditions: C57BL/6j, mouse, mice, 150 minutes after administration. The method, then: A test compound suspended in 10% (v/v) Gelucire 44/14 (GATTEFOSSE) was orally administered to normal mice (C57BL/6j mice, CLEA Japan, Inc.). The percentages of drugs that had not bound to proteins in the liver and the pancreas, which had been obtained by the in vitro test, were […] the total concentrations of the drugs in the liver and the pancreas obtained 150 minutes after administration of the drugs, so as to calculate the non-binding concentration of the drug in each case. The ratio of the non-binding concentration of the drug in the […] was calculated, and thus, liver selectivity was evaluated. As a comparative compound, PSN-GK1 described in non-patent document 11 (corresponding to Example 94 of patent document 2) was produced according to the method described in patent document 2, and the produced comparative compound was then evaluated in the same manner as described above (in the table, the comparative compound is indicated as PSN-GK1).

Assay in data set [3]: as above
The data set is classed as in vivo, normal mice (C57BL/6j mice). To be noted: C57BL/6j, mouse, liver and pancreas, mice, 150 minutes after administration.

The mark [4] stands for this setting: liver, dose 10 mg/kg, read-out: Non-binding concentration (ng/mL) Liver.
Where [5] appears, read: pancreas, dose 10 mg/kg, read-out: Non-binding concentration (ng/mL) Pancreas.

Consider `CC(=O)N1CC[C@H](C[C@@H](C(=O)Nc2ccc(C)cn2)c2ccc(S(=O)(=O)C3CC3)cc2)C1` [Example 23, (R)-3-((S)-1-acetylpyrrolidin-3-yl)-2-(4-(cyclopropylsulfonyl)phenyl)-N-(5-methylpyridin-2-yl)propanamide], for which, in data set [1], the activity at 1 µM was determined as 491%. Further, the selectivity ratio at 150 min in data set [2] (liver and pancreas, dose 3 mg/kg) came to 9. For the same compound, the concentration at 150 min in data set [2] (liver, dose 3 mg/kg, read-out: Non-binding concentration (ng/mL) Liver) was determined as 3 ng/mL; in data set [2] (pancreas, dose 3 mg/kg, read-out: Non-binding concentration (ng/mL) Pancreas) it was 0.33 ng/mL.

As for `CNC(=O)N1CC[C@H](C[C@@H](C(=O)Nc2ncc(C)s2)c2ccc(S(=O)(=O)C3CC3)cc2)C1` [Example 16, (S)-3-((R)-2-(4-(cyclopropylsulfonyl)phenyl)-3-((5-methylthiazol-2-yl)amino)-3-oxopropyl)-N-methylpyrrolidine-1-carboxamide], the activity at 1 µM in data set [1] came to 484%. Take `CNC(=O)N1CC[C@H](C[C@@H](C(=O)Nc2ncc(F)s2)c2ccc(S(=O)(=O)C3CC3)cc2)C1` [Example 2, (S)-3-((R)-2-(4-(cyclopropylsulfonyl)phenyl)-3-((5-fluorothiazol-2-yl)amino)-3-oxopropyl)-N-methylpyrrolidine-1-carboxamide]: the selectivity ratio at 150 min in data set [3] (dose 30 mg/kg) stood at 41. Moreover, the concentration at 150 min was found to be 23 ng/mL in data set [2] (liver, dose 30 mg/kg, read-out: Non-binding concentration (ng/mL) Liver) and 0.56 ng/mL in data set [2] (pancreas, dose 30 mg/kg, read-out: Non-binding concentration (ng/mL) Pancreas). `CNC(=O)N1CC[C@H](C[C@@H](C(=O)Nc2ncc(OC)s2)c2ccc(S(=O)(=O)C3CC3)cc2)C1` [Example 14, (S)-3-((R)-2-(4-(cyclopropylsulfonyl)phenyl)-3-((5-methoxythiazol-2-yl)amino)-3-oxopropyl)-N-methylpyrrolidine-1-carboxamide]: the activity at 1 µM in data set [1] is 809%.

As for `O=C(Nc1ncc(F)s1)[C@H](C[C@H]1CCN(C(=O)CO)C1)c1ccc(S(=O)(=O)C2CC2)cc1` [Example 13, (R)-2-(4-(cyclopropylsulfonyl)phenyl)-N-(5-fluorothiazol-2-yl)-3-((S)-1-(2-hydroxyacetyl)pyrrolidin-3-yl)propanamide], in data set [1], the activity at 1 µM came out at 443%. As to `COC(=O)N1CC[C@H](C[C@@H](C(=O)Nc2ncc(F)s2)c2ccc(S(=O)(=O)C3CC3)cc2)C1` [Example 7, (S)-methyl 3-((R)-2-(4-(cyclopropylsulfonyl)phenyl)-3-((5-fluorothiazol-2-yl)amino)-3-oxopropyl)pyrrolidine-1-carboxylate], in data set [1], the activity at 1 µM came to 828%. As to `COc1cnc(NC(=O)[C@H](C[C@H]2CCN(C(C)=O)C2)c2ccc(S(=O)(=O)C3CC3)cc2)s1` [Example 26, (R)-3-((S)-1-acetylpyrrolidin-3-yl)-2-(4-(cyclopropylsulfonyl)phenyl)-N-(5-methoxythiazol-2-yl)propanamide], the activity at 1 µM in data set [1] turned out to be 877%. As to `CNC(=O)N1CC[C@H](C[C@@H](C(=O)Nc2ncc(Cl)s2)c2ccc(S(=O)(=O)C3CC3)cc2)C1` [Example 15, (S)-3-((R)-3-((5-chlorothiazol-2-yl)amino)-2-(4-(cyclopropylsulfonyl)phenyl)-3-oxopropyl)-N-methylpyrrolidine-1-carboxamide], in data set [1], the activity at 1 µM is 737%. With `CCCNC(=O)N1CC[C@H](C[C@@H](C(=O)Nc2ncc(F)s2)c2ccc(S(=O)(=O)C3CC3)cc2)C1` [Example 6, (S)-3-((R)-2-(4-(cyclopropylsulfonyl)phenyl)-3-((5-fluorothiazol-2-yl)amino)-3-oxopropyl)-N-propylpyrrolidine-1-carboxamide], the activity at 1 µM in data set [1] amounted to 422%. For `CC(=O)N1CC[C@H](C[C@@H](C(=O)Nc2ncc(F)s2)c2ccc(S(=O)(=O)C3CC3)cc2)C1` [Example 3, (R)-3-((S)-1-acetylpyrrolidin-3-yl)-2-(4-(cyclopropylsulfonyl)phenyl)-N-(5-fluorothiazol-2-yl)propanamide], the activity at 1 µM in data set [1] amounted to 803%. The selectivity ratio at 150 min in data set [3] (dose 10 mg/kg) worked out at 17. Moreover, the concentration at 150 min came to 65 ng/mL in data set [2] (setting [4]) and 3.8 ng/mL in data set [2] (setting [5]). `Cc1ccc(NC(=O)[C@H](C[C@H]2CCN(C(N)=O)C2)c2ccc(S(=O)(=O)C3CC3)cc2)nc1` [Example 21, (S)-3-((R)-2-(4-(cyclopropylsulfonyl)phenyl)-3-((5-methylpyridin-2-yl)amino)-3-oxopropyl)pyrrolidine-1-carboxamide]: the activity at 1 µM in data set [1] was 727%. For the same compound, the selectivity ratio at 150 min in data set [3] (dose 10 mg/kg) came out at 25. The concentration at 150 min in data set [2] (setting [4]) came out at 50 ng/mL; in data set [2] (setting [5]), 2 ng/mL.

For the compound `CNC(=S)N1CC[C@H](C[C@@H](C(=O)Nc2ncc(F)s2)c2ccc(S(=O)(=O)C3CC3)cc2)C1` [Example 8, (R)-2-(4-(cyclopropylsulfonyl)phenyl)-N-(5-fluorothiazol-2-yl)-3-((S)-1-(methylcarbamothioyl)pyrrolidin-3-yl)propanamide], in data set [1], the activity at 1 µM was 535%.

As to `CNC(=O)N1CC[C@H](C[C@@H](C(=O)Nc2ccc(C)cn2)c2ccc(S(=O)(=O)C3CC3)cc2)C1` [Example 19, (S)-3-((R)-2-(4-(cyclopropylsulfonyl)phenyl)-3-((5-methylpyridin-2-yl)amino)-3-oxopropyl)-N-methylpyrrolidine-1-carboxamide], the activity at 1 µM in data set [1] came to 437%. In addition, the selectivity ratio at 150 min in data set [3] (dose 10 mg/kg) came out at 17. For the same compound, the concentration at 150 min in data set [2] (setting [4]) came out at 10 ng/mL; in data set [2] (setting [5]), 0.58 ng/mL.

Regarding `O=C(Nc1ncc(F)s1)[C@H](C[C@H]1CCN(C(=O)NO)C1)c1ccc(S(=O)(=O)C2CC2)cc1` [Example 10, (S)-3-((R)-2-(4-(cyclopropylsulfonyl)phenyl)-3-((5-fluorothiazol-2-yl)amino)-3-oxopropyl)-N-hydroxypyrrolidine-1-carboxamide], the activity at 1 µM in data set [1] is 602%. Same read-out and setting: the value for `CNC(=O)C(=O)N1CC[C@H](C[C@@H](C(=O)Nc2ncc(F)s2)c2ccc(S(=O)(=O)C3CC3)cc2)C1` [Example 11] was 427%.

The values above are taken from patent publication US9242978B2, “Phenylacetamide compound and pharmaceutical containing same” (KOWA COMPANY, LTD., priority 2012, dated 2016).
